According to ChEMBL document CHEMBL1201862, “PubChem BioAssay data set” (2004):
Active and inactive are the calls of the source.

What was measured:
[1] = target: Latent membrane protein 1 (Human herpesvirus 4 (strain B95-8), UniProt P03230); assay: TES1-eGFP NF-kB reporter inhibition versus Tet-On dsRED, dose response, selectivity assay for LMP1 NF-kB inhibitor project, imaging, HEK293T, dual-color eGFP/dsRED, cherry-picks (AID 588398); assay type: functional, cell-based
[2] = ADAM10 protease inhibitors, dose response, selectivity assay for ADAM17 exosite inhibitor project, biochemical, FRET peptide substrate, recombinant human ADAM10 (AID 743259);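 note: ADAM10 enzyme cleaving a FRET peptide substrate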
[3] = target: Disintegrin and metalloproteinase domain-containing protein 17 (Homo sapiens, UniProt P78536); assay: exosite inhibitors of ADAM17, dose response, biochemical (AID 743260)
[4] = system: INS1; assay: protection from cytokine-driven beta-cell apoptosis, dose response, JC-1 fluorescence, INS-1E, dry powder, set 2 (AID 488867); assay type: functional, cell-based; conditions: Rattus norvegicus
[5] = system: INS1; assay: protection from cytokine-induced mitochondrial depolarization, dose response, cell-based, INS-1E, JC-1 fluorescence ratio, dry powder (AID 488931); assay type: functional; conditions: Rattus norvegicus
[6] = target: Phospholipase D2 (Homo sapiens, UniProt O14939); assay: PLD2 inhibitor potency in cells, dose response (AID 602147); assay type: functional;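 note: cellular assay in HEK293 cells overexpressing GFP-tagged PLD2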
[7] = target: T1, Phospholipase D1 (Homo sapiens, UniProt Q13393); assay: PLD1 inhibitor potency in cells, dose response (AID 602151); assay type: functional;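 note: cellular PLD1 assay in Calu-1 cells stimulated with PMA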
T1 sequence (Q13393 whole entry): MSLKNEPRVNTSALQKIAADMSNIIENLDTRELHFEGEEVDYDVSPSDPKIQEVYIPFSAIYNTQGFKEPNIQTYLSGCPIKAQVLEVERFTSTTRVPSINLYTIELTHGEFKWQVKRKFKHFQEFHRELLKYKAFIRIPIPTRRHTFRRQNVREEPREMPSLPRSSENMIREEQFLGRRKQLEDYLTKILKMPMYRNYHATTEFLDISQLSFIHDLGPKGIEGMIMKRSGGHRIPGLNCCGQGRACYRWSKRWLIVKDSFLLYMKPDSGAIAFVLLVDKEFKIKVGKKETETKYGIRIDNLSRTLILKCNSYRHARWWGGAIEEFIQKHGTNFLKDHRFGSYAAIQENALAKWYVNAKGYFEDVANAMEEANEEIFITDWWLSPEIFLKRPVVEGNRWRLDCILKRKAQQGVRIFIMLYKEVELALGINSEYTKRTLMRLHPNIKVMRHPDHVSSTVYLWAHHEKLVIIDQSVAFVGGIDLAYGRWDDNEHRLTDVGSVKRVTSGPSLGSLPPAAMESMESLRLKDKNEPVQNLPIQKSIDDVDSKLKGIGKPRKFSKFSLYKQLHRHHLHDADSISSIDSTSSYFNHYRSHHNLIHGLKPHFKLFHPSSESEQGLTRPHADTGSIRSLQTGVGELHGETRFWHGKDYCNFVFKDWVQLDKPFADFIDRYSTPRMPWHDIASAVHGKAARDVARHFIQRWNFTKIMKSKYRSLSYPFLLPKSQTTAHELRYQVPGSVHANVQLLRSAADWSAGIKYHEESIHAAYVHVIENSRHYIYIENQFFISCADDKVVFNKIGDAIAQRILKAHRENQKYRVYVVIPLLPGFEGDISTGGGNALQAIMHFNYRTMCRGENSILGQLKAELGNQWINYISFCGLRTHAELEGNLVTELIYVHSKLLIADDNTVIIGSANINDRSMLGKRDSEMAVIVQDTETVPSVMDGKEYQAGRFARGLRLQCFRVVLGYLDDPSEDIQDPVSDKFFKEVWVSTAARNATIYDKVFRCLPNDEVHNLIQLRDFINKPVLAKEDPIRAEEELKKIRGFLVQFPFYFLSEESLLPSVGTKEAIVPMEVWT

[8] = target: T2, Caspase-3 (Homo sapiens, UniProt P42574); assay: caspase-3 inhibitors as off-family protease, SAR follow-up, selectivity assay for SENP protease inhibitor project, biochemical, luminescence, set 2 (AID 588599); assay type: functional
T2 sequence (P42574 whole entry): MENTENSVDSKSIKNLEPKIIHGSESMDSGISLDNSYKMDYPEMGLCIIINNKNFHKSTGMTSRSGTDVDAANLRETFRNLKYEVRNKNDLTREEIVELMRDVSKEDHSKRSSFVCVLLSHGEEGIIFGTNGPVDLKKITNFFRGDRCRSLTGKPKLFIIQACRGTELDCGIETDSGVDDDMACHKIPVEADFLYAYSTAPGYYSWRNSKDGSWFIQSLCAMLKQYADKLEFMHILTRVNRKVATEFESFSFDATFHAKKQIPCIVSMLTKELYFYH

[9] = target: T2, Caspase-3; assay: SAR Analysis of small molecule inhibitors of Sentrin-specific proteases (SENPs) using a Caspase-3 Selectivity assay. [Related pubchem assays (depositor defined):AID2540, AID2599, AID434973, AID489001]; assay type: functional
[10] = target: T3, Sentrin-specific protease 8 (Homo sapiens, UniProt Q96LD8); assay: SENP8 protease inhibitors, SAR follow-up, biochemical, luminescence (AID 504501); assay type: functional
T3 sequence (Q96LD8 whole entry): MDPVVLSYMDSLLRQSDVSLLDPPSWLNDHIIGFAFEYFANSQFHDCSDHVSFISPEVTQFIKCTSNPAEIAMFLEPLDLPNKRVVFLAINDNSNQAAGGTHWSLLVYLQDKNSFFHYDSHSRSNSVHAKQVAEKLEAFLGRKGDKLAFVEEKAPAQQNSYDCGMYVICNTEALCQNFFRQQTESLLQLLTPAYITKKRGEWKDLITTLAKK

[11] = target: T4, Sentrin-specific protease 7 (Homo sapiens, UniProt Q9BQF6); assay: SENP7 protease inhibitors, SAR follow-up, biochemical, luminescence (AID 504497); assay type: functional
T4 sequence (Q9BQF6 whole entry): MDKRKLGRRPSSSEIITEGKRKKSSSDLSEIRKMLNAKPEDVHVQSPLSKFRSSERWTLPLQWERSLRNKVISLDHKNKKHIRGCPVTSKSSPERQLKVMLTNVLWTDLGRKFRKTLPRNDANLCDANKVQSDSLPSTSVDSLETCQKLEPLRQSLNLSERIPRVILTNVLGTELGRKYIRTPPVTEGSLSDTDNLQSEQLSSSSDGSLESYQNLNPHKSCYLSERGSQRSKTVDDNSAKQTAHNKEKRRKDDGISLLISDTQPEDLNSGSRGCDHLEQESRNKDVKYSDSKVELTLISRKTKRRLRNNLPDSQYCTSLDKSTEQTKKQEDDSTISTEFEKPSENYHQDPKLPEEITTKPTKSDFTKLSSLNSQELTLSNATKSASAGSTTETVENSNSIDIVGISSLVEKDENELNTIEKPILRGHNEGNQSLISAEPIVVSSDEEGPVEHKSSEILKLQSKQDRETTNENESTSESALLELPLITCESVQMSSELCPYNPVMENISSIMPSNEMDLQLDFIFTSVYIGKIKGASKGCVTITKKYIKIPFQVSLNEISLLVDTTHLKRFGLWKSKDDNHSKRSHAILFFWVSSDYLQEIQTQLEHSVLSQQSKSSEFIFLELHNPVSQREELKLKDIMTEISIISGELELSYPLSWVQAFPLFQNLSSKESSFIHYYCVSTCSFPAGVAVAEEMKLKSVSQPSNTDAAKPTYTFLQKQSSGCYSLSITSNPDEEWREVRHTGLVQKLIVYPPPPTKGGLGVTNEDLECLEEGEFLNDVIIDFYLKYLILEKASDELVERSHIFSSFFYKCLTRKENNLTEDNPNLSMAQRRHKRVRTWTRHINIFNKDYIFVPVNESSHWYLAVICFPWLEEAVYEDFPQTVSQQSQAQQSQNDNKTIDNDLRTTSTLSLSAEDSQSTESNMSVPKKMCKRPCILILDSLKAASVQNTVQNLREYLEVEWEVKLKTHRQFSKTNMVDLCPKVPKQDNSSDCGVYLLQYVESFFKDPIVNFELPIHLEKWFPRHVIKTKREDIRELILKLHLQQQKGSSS

[12] = target: T5, Sentrin-specific protease 6 (Homo sapiens, UniProt Q9GZR1); assay: SAR Analysis of small molecule inhibitors of Sentrin-specific protease 6 (SENP6) using a Luminescent assay. [Related pubchem assays (depositor defined):AID2582, AID2599]; assay type: functional
T5 sequence (Q9GZR1 whole entry): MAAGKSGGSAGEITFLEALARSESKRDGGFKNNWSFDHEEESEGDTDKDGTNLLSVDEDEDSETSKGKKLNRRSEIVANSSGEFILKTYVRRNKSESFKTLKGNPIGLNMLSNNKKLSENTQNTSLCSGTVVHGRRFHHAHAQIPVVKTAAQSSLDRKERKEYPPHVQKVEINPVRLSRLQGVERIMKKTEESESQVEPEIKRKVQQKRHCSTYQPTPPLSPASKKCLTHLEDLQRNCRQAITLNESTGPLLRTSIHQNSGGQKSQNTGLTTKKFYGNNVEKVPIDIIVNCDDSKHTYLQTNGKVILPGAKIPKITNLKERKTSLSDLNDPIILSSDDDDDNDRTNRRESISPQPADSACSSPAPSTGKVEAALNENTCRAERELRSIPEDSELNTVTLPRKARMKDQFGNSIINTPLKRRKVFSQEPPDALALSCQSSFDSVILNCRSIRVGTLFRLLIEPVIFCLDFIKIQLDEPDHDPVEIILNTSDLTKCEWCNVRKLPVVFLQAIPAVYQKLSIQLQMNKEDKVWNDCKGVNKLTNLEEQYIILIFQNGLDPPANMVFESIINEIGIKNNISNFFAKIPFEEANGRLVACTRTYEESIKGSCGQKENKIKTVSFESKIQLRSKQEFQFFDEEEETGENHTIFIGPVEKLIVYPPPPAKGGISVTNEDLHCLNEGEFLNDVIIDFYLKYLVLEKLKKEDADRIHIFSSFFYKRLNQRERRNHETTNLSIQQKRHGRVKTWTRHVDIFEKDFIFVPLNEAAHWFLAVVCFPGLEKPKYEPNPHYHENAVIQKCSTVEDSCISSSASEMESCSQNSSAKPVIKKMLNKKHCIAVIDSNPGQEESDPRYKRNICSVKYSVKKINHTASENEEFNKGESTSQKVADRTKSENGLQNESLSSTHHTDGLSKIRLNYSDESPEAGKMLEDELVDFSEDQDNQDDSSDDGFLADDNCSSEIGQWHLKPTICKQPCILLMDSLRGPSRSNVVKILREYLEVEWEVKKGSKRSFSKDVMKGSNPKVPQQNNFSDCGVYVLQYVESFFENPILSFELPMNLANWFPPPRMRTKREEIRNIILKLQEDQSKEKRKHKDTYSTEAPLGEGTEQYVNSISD

[13] = target: T5, Sentrin-specific protease 6; assay: SENP6 protease inhibitors, SAR follow-up, biochemical, luminescence, set 2 (AID 588598); assay type: functional
[14] = target: T3, Sentrin-specific protease 8; assay: SENP8 protease inhibitors, SAR follow-up, biochemical, luminescence, set 2 (AID 588601); assay type: functional
[15] = target: DNA dC->dU-editing enzyme APOBEC-3A (Homo sapiens, UniProt P31941); assay: SAR analysis of small molecule inhibitors of APOBEC3A DNA Deaminase via a fluorescence-based single-stranded DNA deaminase assay.; assay type: functional; conditions: read-out: IC50_Mean
[16] = target: DNA dC->dU-editing enzyme APOBEC-3G (Homo sapiens, UniProt Q9HC16); assay: APOBEC3G deaminase inhibitors, SAR follow-up, biochemical, fluorescence, single-stranded DNA substrate (AID 602136); assay type: functional; conditions: read-out: IC50_Mean
[17] = system: CHO; assay: cytotoxicity in TLR9-MyD88 CHO cells, dose response, cytotoxicity control for TLR9-MyD88 binding inhibitor project, cell-based, luminescence (AID 588339); assay type: functional, hamster; conditions: Cricetulus griseus;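 note: CHO cells stably coexpressing TLR9 and MyD88 fusions from primary screen; compound exposure lasted 48 hours before viability readout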
[18] = target: Beta Lactamase (Pseudomonas aeruginosa, UniProt Q932Y6); assay: beta-lactamase reporter inhibitor potency, dose response, artefact control for TLR9-MyD88 binding inhibitor project, BLA reporter cells, FRET fluorescence (AID 588341); assay type: cell-based;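 note: cell based assay in CHO-K1 cells stably expressing beta-lactamase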
[19] = Vero E6 cell cytotoxicity, dose response, cytotoxicity control for non-replicating M. tuberculosis project, secondary assay (AID 492998); assay type: functional, VeroE6; conditions: Vero C1008
[20] = THP-1 cell cytotoxicity, dose response, cytotoxicity control for non-replicating M. tuberculosis project (AID 489025); assay type: functional
[21] = cells; assay type: functional

Sequence of DNA dC->dU-editing enzyme APOBEC-3G (Q9HC16 whole entry, the tested form may be a part): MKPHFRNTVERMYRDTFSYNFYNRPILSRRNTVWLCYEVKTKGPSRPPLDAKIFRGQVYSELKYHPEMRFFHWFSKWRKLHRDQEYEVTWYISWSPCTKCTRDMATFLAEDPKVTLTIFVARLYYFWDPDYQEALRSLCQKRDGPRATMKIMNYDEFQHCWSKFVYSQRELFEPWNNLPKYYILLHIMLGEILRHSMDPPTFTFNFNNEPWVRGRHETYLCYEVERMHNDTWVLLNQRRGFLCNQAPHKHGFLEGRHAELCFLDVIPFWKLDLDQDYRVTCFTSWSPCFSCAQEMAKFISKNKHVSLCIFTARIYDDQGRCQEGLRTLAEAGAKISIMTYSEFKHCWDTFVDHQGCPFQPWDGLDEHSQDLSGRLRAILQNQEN
Sequence of Disintegrin and metalloproteinase domain-containing protein 17 (P78536 whole entry, the tested form may be a part): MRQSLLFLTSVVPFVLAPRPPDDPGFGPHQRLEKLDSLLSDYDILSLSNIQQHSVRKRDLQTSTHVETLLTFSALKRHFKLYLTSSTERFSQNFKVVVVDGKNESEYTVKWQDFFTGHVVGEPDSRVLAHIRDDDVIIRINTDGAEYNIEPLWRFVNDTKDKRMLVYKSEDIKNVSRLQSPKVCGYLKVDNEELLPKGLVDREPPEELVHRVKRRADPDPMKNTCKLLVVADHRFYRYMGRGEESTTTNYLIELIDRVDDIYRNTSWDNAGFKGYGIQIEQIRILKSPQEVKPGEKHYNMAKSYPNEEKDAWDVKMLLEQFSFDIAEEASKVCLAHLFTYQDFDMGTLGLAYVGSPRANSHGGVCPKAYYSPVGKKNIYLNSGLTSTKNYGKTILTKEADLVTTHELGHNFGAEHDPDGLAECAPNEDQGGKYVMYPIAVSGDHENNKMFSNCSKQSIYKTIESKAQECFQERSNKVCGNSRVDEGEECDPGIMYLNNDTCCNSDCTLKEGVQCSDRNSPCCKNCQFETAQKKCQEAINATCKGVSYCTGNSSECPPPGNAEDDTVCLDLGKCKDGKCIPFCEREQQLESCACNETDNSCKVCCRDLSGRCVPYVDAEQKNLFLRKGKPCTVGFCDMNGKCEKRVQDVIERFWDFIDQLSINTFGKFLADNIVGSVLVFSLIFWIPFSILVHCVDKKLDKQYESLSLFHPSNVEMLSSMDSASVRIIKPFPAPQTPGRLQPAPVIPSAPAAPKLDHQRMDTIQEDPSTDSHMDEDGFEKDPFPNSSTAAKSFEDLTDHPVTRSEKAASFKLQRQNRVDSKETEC
Sequence of DNA dC->dU-editing enzyme APOBEC-3A (P31941 whole entry): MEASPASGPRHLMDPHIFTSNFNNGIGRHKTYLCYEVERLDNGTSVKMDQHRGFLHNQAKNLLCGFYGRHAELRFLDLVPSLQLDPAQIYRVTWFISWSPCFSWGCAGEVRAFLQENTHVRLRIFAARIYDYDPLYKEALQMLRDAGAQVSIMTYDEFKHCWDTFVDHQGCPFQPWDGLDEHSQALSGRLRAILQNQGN
Sequence of Latent membrane protein 1 (P03230 whole entry): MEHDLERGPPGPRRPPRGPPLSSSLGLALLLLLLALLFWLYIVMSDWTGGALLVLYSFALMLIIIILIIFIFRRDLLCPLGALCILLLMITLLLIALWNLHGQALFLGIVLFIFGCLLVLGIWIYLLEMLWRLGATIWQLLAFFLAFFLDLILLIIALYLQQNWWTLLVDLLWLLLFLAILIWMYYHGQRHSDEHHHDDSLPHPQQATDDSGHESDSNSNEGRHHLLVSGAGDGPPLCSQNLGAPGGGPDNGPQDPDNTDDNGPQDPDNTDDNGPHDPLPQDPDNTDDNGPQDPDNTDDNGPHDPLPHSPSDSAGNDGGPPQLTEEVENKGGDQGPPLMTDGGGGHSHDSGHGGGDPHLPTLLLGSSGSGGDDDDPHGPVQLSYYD
Sequence of Phospholipase D2 (O14939 whole entry): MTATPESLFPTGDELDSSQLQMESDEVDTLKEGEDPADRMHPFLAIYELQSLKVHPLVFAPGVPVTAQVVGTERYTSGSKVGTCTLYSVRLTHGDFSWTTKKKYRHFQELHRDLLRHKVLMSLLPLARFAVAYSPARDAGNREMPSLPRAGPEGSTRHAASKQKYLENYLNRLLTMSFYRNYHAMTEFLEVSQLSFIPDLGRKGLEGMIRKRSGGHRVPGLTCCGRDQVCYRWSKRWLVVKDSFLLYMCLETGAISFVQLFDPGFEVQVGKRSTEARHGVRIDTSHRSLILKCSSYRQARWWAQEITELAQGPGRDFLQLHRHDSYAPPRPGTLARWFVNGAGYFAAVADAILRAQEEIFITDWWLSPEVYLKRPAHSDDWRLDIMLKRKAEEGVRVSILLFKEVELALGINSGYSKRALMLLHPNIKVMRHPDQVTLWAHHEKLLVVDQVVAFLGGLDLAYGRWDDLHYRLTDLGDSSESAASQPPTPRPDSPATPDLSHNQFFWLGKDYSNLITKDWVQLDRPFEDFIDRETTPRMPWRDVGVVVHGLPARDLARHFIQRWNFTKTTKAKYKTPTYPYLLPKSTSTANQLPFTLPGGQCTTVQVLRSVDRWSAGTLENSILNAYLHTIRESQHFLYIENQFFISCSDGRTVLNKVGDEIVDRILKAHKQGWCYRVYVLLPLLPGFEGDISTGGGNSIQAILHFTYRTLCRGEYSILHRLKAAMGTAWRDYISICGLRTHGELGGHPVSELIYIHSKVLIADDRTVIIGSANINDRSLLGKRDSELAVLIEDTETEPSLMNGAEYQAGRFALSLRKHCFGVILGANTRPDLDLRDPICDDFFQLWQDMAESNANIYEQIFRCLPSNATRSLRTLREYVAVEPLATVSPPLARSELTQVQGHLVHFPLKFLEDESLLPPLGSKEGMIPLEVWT
Sequence of Beta Lactamase (Q932Y6 whole entry): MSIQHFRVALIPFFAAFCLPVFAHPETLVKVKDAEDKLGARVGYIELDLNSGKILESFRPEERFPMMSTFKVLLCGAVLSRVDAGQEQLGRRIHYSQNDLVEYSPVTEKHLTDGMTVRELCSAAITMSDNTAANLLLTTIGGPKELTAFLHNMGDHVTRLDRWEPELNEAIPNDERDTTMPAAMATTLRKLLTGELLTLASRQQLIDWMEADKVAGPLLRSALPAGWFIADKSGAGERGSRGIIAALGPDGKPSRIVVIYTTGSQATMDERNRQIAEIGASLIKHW

COc1ccc(CN(C(=O)c2nsc(Cl)c2Cl)C(C(=O)NC2CCCC2)c2ccc(C)cc2)cc1 (stereo unspecified)
AC50 [1]: 27.6 µM (active)
IC50 [2]: > 7.72 µM (active)
IC50 [3]: > 69.5 µM (inactive)

COc1ccc(S(=O)(=O)N(C)C[C@@H]2Oc3c(NC(=O)Nc4cccc5ccccc45)cccc3C(=O)N([C@@H](C)CO)C[C@H]2C)cc1OC
AC50 [4]: 116 µM (active)
AC50 [5]: 85 µM (active)

O=C(NCCN1CCC2(CC1)C(=O)NCN2c1cccc(F)c1)c1ccc2c(c1)C(=O)OC2=O
IC50 [6]: 0.265 µM (active)
IC50 [7]: 5.55 µM (active)

COc1ccccc1OCc1nc(-c2ccccc2Cl)no1
IC50 [8]: 3.23 µM (active)
IC50 [9]: 2.9 µM (active)
IC50 [10]: 4.9 µM (active)
IC50 [11]: 2.1 µM (active)
IC50 [12]: 4.7 µM (active)
IC50 [13]: 2.08 µM (active)
IC50 [14]: 2 µM (active)

COc1ccc(-c2nnc(SCc3coc(-c4cccs4)n3)[nH]2)cc1
IC50 [15]: > 99 µM (inactive)
IC50 [16]: > 99 µM (inactive)

CC(=O)Oc1ccc(N2C(=O)c3cccc4c([N+](=O)[O-])ccc(c34)C2=O)cc1
IC50 [17]: 6.34 µM (active)
IC50 [18]: 4.06 µM (active)
CC50 [19]: > 20 µM (active)
CC50 [20]: 6.74 µM (active)
IC50 [21]: 9.16 µM (active)
